Key:
CD4+CD25+ cells = experiment: Annexin V / living dye apoptosis flow cytometry, CD4+CD25+ cells; format: cell-based, murine
Description: The effects of IGF-1 on apoptosis can be measured by flow cytometry. By using a combination of a living dye and Annexin V staining it is possible to determine four different cell populations which correspond to non-apoptotic, necrotic, early and late apoptosis.
Initially, and in order to characterize the in vitro effects of IGF-1 on the different populations of the […] immune system, murine splenic CD4 positive cells were sorted by FACS based on the expression of CD25. This allows for the separation and enrichment of conventional T cells (CD25 negative) and regulatory T cells (CD25 positive). […] To exclude the possibility that the observed expansion was due to the anti-apoptotic properties of IGF-1, the cells in culture were stained with AnnexinV (a marker of apoptosis) and a vital dye, and then analyzed by flow cytometry.

[1] = tested on: FOXP3 positive cells (CD25+ splenic cells); experiment: Foxp3 and Ki67 flow cytometric analysis of Treg proliferation; format: cell-based, murine
Protocol: (§1) To determine the effect of IGF-1 in the regulatory subset in vitro (cf. FIG. 4) the number of FOXP3 positive cells is determined by flow cytometric analysis. To analyze other subsets, like the proinflammatory Th1 and Th17 subsets, a similar approach is used but the number of interferon-gamma (Th1) and IL-17 (Th17) positive cells is determined. Additionally, to evaluate the number of proliferating cells at a given moment cells are stained using the intracellular marker Ki67, which is expressed only in cycling cells. The combination of a specific lineage marker (e.g., Foxp3, IFN-g, IL-17) with Ki67 allows for the determination at a given moment of the cells belonging to a certain subset and their proliferative status.
In animal experiments, the population is isolated normally from murine spleen (but also could be isolated from other tissues, like for example but not restricted to bone marrow, adipose tissue, cord blood derived mononuclear cell, thymus, or peripheral blood) and is sorted using different markers (e.g., CD4 and CD25). This population is defined as CD4+CD25+ and includes the regulatory cells. This population is then treated in the above-mentioned medium in the presence of IGF-1. After several days of culture part of the cells are counted, fixed, permeabilized and analyzed by flow cytometry using an anti-FOXP3 antibody in combination with the same extracellular markers (CD4 and CD25). This allows for the determination of the absolute number of FOXP3 positive cells present in the culture.
To further define the proliferative effects of IGF-1, FACS-sorted CD25+ splenic cells (>98% purity) after two days in culture with recombinant IGF-1 were fixed, permeabilized and stained with antibodies against FOXP3 and Ki67. Foxp3 is a transcription factor that orchestrates the cellular and molecular programs involved in T regulatory function. Ki67 is a nuclear antigen present in proliferating cells. […] After three days of culture the number of FOXP3 positive cells was increased four-fold and the number of regulatory T cells proliferating approximately six-fold.

CD4+CD25+ splenic cells = experiment: qRT-PCR and microarray gene expression in CD4 CD25 double positive splenic cells; format: cell-based, murine
Protocol: To further support the effect of IGF-1 on T regulatory function qRT-PCR analysis was performed on CD4 CD25 double positive splenic purified cells in the presence or absence of IGF-1 (FIG. 3). […] IL-10 is a cytokine with a potent anti-inflammatory activity that is produced, among others, by regulatory T cells (Mosser and Zhang, 2008) and its expression is not dependent on Foxp3 expression (Gavin et al., 2007). Foxp3 IL10 expressing cells mainly localize in the intestine and are important regulators of intestine homeostasis. For example, mice with conditional deletion of IL-10 develop spontaneous inflammation of the intestine (Roers et al., 2004). […] Additionally, IL-10 is also important for the maintenance of Foxp3 expression in vivo in mice with colitis (Murai et al., 2009). The inventors performed microarray analysis comparing IGF-1 treated and untreated Tregs. […] An example of these genes is granzyme B, which enables T regulatory cells to actively kill APCs and Teff cells in extreme conditions. These and other mechanisms are believed to lead in vivo to the resolution of the immune response (Tang and Bluestone, 2008). Thus, maintaining the suppressive function after cell expansion was a critical aspect regarding the use of IGF-1 for restoring the balance of effector and regulatory.

[2] = tested on: proinflamatory subsets Th1 (IFN-gamma+) and Th17 (IL-17+); experiment: flow cytometry of polarized Th1 and Th17 subsets; format: cell-based; conditions: 2 day polarization, 3 day incubation with recombinant IGF-1
Protocol: as §1
An important aspect regarding the immunomodulatory properties of IGF-1 is the specificity of the effect for a certain cellular subset, in this case Tregs. If IGF-1 was a general anabolic factor affecting equally all subsets, it would no affect the balance of pro-inflammatory/anti-inflammatory players. In order to test the hypothesis that IGF-1 induces immune tolerance by specifically affecting the suppressive function, CD4 positive […] cells were polarized for two days into the IFN-gamma secreting Th1 subset and the IL-17 secreting Th17 subset and then incubated with IGF-1.

[3] = tested on: CD4+ cells isolated from mesenteric lymph nodes; experiment: intraperitoneal injection, RT-PCR of CD4+ cells from mesenteric lymph nodes; format: in vivo, mice; conditions: five intraperitoneal daily injections (5 μg); RT-PCR after the fifth day; n=30, P=0.0241
DSS-induced colitis = experiment: DSS-induced colitis, systemic IGF-1 delivery; format: in vivo, mice
Description: In this example the inventors examined the ability of IGF-1 to suppress inflammation in a mouse model for IBD (DSS-induced colitis, Wirtz et al, 2007). Mice ingested DSS for 7 days and developed an acute colitis. […] This difference in weight with respect to their respective control group was maintained during the duration of the IGF-1 treatment (FIG. 31).
Administration of DSS in several cycles results in chronic colitis (Wirtz et al., 2007). To also test if the protective effects of IGF-1 lasted beyond the IGF-1 treatment, mice were administered DSS for another cycle at day 37. […] To further confirm that the observed effects were a consequence of colonic inflammation the inventors performed a histochemical analysis of the colon (FIG. 33). DSS-treated mice presented enlargement of the muscle, mucosa and subepithelial layer and foci of infiltrating cell, the main mediators of inflammation. In contrast, DSS-colitis mice receiving IGF-1 during the initial phase of the treatment for a total of 28 days were protected and did no show this prolonged infiltration of leukocytes. Quantification of these histological parameters (FIG. 34) further confirmed the significant long-term protection in IGF-pretreated mice.

[4] = mouse, in vivo
Protocol: The inventors first tested the ability of rhIGF-1 to alter the balance of Treg/CD4 positive cells after five intraperitoneal daily injections (5 μg, FIG. 11).

[5] = dose response curve, 2 days stimulation
[6] = qRT-PCR, compared to non-treated cultures

Substance: Insulin-like growth factor-1 [IGF-1]
- distribution of Annexin V and living dye stained populations (CD4+CD25+ cells): No difference
- dose range at which FOXP3 positive cells respond [1, 5]: falls within physiological ranges
- saturability of stimulated pathway/receptor [1, 5]: saturable
- increase in number of FOXP3 positive cells ([1]; three days of culture): four-fold
- increase in number of regulatory T cells proliferating ([1]; three days of culture): approximately six-fold
- double positive FOXP3 Ki67 population ([1]; two days in culture): increase
- number of FOXP3 positive cells ([1]; two days in culture): increase
- granzyme B gene expression (CD4+CD25+ splenic cells; microarray, IGF-1 treated versus untreated Tregs): upregulated
- Foxp3 mRNA (CD4+CD25+ splenic cells; [6]): upregulated from day 1
- IL-10 mRNA (CD4+CD25+ splenic cells; [6]): upregulated but with delayed kinetics
- cells expressing IFN-gamma (Th1) [2]: no effect
- cells expressing IL-17 (Th17) [2]: no effect
- expression of Foxp3 in CD4+ cells from mesenteric lymph nodes [3]: increased expression
- histological signs of colitis, infiltration of leukocytes (DSS-induced colitis; IGF-1 for 28 days in initial phase, after re-challenge): protected
- body weight loss (DSS-induced colitis; acute phase, DSS for 7 days): showed protection
- thickness of the subepithelial layer of the colon (DSS-induced colitis; after re-challenge, versus DSS-only mice, P=0.0004): significant reduction
- thickness of the mucosa of the colon (DSS-induced colitis; after re-challenge, versus DSS-only mice, P=0.0007): significant reduction
- thickness of the muscle layer of the colon (DSS-induced colitis; after re-challenge, versus DSS-only mice, P=0.053): significant reduction
- difference in weight with respect to control group (DSS-induced colitis; during the duration of the IGF-1 treatment): maintained
- body weight loss after DSS re-challenge (DSS-induced colitis; second DSS cycle at day 37, no rhIGF-1 delivered in this period): complete protection
- hIGF-1 in peripheral blood [4]: Elevated levels
- increase of IGF-1 levels determined by ELISA [4]: 40 and 4

Source: US20140286906A1, “USE OF IGF-1 IN THE MODULATION OF TREG CELL ACTIVITY AND THE TREATMENT AND PREVENTION OF AUTOIMMUNE DISORDERS OR DISEASES” (priority 2011, published 2014)
